This note sets out measurements from ChEMBL document CHEMBL2375358, “Substituted thieno[2,3-d]pyrimidines as adenosine A2A receptor antagonists” (Bioorg Med Chem Lett, 2013).

pKi: −log10 of the molar value. Active and inactive are the calls of the source. The calls are words filed in the database; no cut-off is given here.

Data set [1] addresses T1, Adenosine receptor A1 (Homo sapiens, UniProt P30542).
T1 sequence (P30542 whole entry): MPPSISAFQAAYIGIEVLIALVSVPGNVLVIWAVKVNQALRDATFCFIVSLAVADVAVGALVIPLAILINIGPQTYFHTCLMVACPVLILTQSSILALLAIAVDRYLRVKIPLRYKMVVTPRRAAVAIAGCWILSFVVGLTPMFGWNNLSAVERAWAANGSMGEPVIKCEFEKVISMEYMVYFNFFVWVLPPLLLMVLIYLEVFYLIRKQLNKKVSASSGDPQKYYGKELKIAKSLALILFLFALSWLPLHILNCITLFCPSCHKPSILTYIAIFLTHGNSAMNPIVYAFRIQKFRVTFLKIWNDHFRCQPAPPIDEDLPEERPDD
Put plainly: Antagonist activity at human adenosine A1 receptor expressed in CHOK1 cells assessed as inhibition of R-PIA/forskolin-induced cAMP accumulation incubated for 15 mins prior to R-PIA/forskolin challenge measured after 5.5 to 6 hrs by beta-galactosidase reporter gene assay. In kind it is functional, cell-based, CHO-K1.

Data set [2] deals with Adenosine receptor A2a (Homo sapiens, UniProt P29274). Put plainly: Antagonist activity at human adenosine A2a receptor expressed in CHOK1 cells assessed as inhibition of NECA/forskolin-induced cAMP accumulation incubated for 15 mins prior to NECA/forskolin challenge measured after 5.5 to 6 hrs by beta-galactosidase reporter gene assay. The class given is functional, cell-based, CHO-K1.

Data set [3] concerns Mus musculus. Description: Antiparkinsonian activity in po dosed mouse assessed as reversal of haloperidol-induced catalepsy after 1 hr. The class given is functional.
Data set [4] in a line: Cmax in rat at 10 mg/kg, po. In kind it is ADME, organism-based. Further details: dose 10 mg/kg, route oral. Particulars: in vivo.
In data set [5] the test system is Mus musculus. Description: Antiparkinsonian activity in mouse assessed as reversal of haloperidol-induced catalepsy at 10 mg/kg, po after 2 to 4 hrs. In kind it is functional, organism-based. Set-up: dose 10 mg/kg.
A short description of data set [6]: Cmax in mouse at 10 mg/kg, po. The class given is ADME, organism-based. Further details: dose 10 mg/kg, route oral. The note with it: in vivo.
Data set [7] in a line: Half life in mouse at 10 mg/kg, po. Particulars: in vivo. Set-up: dose 10 mg/kg, route oral. In kind it is ADME, organism-based.
Data set [8] can be described thus: Ratio of drug level in brain to plasma in rat at 2 mg/kg, iv and 10 mg/kg, po measured at 1 hr. In kind it is ADME, organism-based. The note with it: read-out: BPR.
Data set [9] in a line: Clearance in rat at 2 mg/kg, iv and 10 mg/kg, po. The class given is ADME, organism-based. The note with it: in vivo.
Data set [10] can be described thus: Oral bioavailability in mouse at 10 mg/kg. The class given is ADME, organism-based. The note with it: in vivo.
The nature of data set [11]: Clearance in mouse at 5 mg/kg, iv and 10 mg/kg, po. The class given is ADME, organism-based. Particulars: in vivo.
Data set [12] has as its system Mus musculus. Put plainly: Antiparkinsonian activity in mouse assessed as reversal of haloperidol-induced catalepsy at 10 mg/kg, po after 1 hr. Set-up: dose 10 mg/kg. In kind it is functional, organism-based.
Data set [13] can be described thus: Oral bioavailability in rat at 10 mg/kg. Particulars: in vivo. The class given is ADME, organism-based.
A short description of data set [14]: Half life in rat at 10 mg/kg, po. In kind it is ADME, organism-based. Set-up: dose 10 mg/kg, route oral. The note with it: in vivo.
Data set [15] has as its system Mus musculus. Description: Antiparkinsonian activity in mouse assessed as reversal of haloperidol-induced catalepsy at 3 mg/kg, po after 1 hr. In kind it is functional, organism-based. Further details: dose 3 mg/kg.

Adenosine receptor A2a, sequence (P29274 whole entry): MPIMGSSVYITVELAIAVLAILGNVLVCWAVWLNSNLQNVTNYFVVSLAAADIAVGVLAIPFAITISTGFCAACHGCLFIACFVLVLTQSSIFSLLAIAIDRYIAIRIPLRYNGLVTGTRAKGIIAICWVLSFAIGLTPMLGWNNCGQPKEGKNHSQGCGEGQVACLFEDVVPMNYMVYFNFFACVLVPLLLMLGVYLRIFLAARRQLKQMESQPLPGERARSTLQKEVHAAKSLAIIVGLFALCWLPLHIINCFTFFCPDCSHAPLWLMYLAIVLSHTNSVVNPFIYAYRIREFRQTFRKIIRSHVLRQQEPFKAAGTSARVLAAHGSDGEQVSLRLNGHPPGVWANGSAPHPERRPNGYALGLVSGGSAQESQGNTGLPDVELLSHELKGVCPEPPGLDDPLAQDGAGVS

`Cc1csc(-c2nc(N)c3cc(Cc4ccccc4Cl)sc3n2)n1`: the results for the pKi in data set [1] and in [2] were 7.30 and 8.16, respectively.
For `Cc1csc(-c2nc(N)c3cc(C(C)c4ccccc4)sc3n2)n1` (configuration not stated) the same measures were 5.85 and 7.00.
`Cc1ccc(-c2nc(N)c3cc(Cc4ccccc4)sc3n2)o1`: the 50% effective dose (ED50) in [3] is 2.2 mg/kg. For the same compound, in data set [1], the negative logarithm of the Ki (pKi) is 6.53. Also, the Cmax was found to be 2.98 µM in data set [4] and 5.01 µM in [6]. In addition, the result in data set [5] was inactive. Moreover, the values for the half-life in data set [7] and in data set [14] were 18 min and 42 min, respectively. Besides, the Kp at 1 h in data set [8] came to 1.2. The clearance in data set [9] came to 65 mL/min/kg; in data set [11] it was 69 mL/min/kg. Further, the bioavailability in data set [10] came to 5%; in [13], 83%. Besides, the result in data set [12] was Active.
Regarding `Cc1ccc(-c2nc(N)c3cc(CCc4ccccc4)sc3n2)o1`, in data set [2], the pKi is 6.69.
`Cc1ccc(-c2nc(N)c3cc(-c4ccccc4)sc3n2)o1`: the pKi in data set [1] is 6.28; in data set [2], 7.17.
`Nc1nc(-c2ncco2)nc2sc(Cc3ccccc3)cc12`: the negative-log Ki (pKi) in [1] was 6.51; in [2] it was 8.33. The outcome in data set [15] was inactive.
In the case of `Cc1csc(-c2nc(N)c3cc(Cc4ccccc4)sc3n2)n1`, the result in [12] was inactive.
Regarding `C=C(c1ccccc1)c1cc2c(N)nc(-c3nc(C)cs3)nc2s1`, the negative logarithm of the Ki (pKi) in data set [1] was less than 6.23.
Same read-out and setting: as for `C=C(c1ccccc1)c1cc2c(N)nc(-c3cccc(C#N)c3)nc2s1`, the figure is less than 6.00.
Regarding `N#Cc1cccc(-c2nc(N)c3cc(Cc4ccccc4Cl)sc3n2)c1`, the values for the negative-log Ki (pKi) in [1] and in data set [2] were 7.61 and 8.85, respectively.
Turning to `N#Cc1cccc(-c2nc(N)c3cc(Cc4ccccc4)sc3n2)c1`, in data set [3], the 50% effective dose (ED50) was less than 1 mg/kg. Further, the pKi was 6.65 in data set [1] and 7.94 in [2]. The result in [15] was Active.
On to `CC(C)c1ccc(-c2nc(N)c3cc(Cc4ccccc4)sc3n2)o1`, for which the pKi was 6.55 in [1] and 6.77 in data set [2].
For `Cc1ccc(-c2nc(N)c3cc(Cc4ccccc4Cl)sc3n2)o1` the same measures were 7.58 and 8.54.
`N#Cc1cccc(-c2nc(N)c3cc(C4(c5ccccc5)CC4)sc3n2)c1`: in [1], the negative-log Ki (pKi) was less than 6.21.
`Cc1csc(-c2nc(N)c3cc(Cc4ccccc4F)sc3n2)n1`: the pKi in data set [1] was 7.54; in data set [2], 8.01.
As to `Nc1nc(-c2ccccc2)nc2sccc12`, the pKi in data set [2] was 6.30.
For `Cc1ccc(-c2nc(N)c3ccsc3n2)o1`, the results for the pKi in data set [1] and in data set [2] were 6.31 and 6.96, respectively.
For `Nc1nc(C2CCCO2)nc2sc(Cc3ccccc3)cc12` (configuration not stated) the same measures were 5.53 and 6.17.
For the compound `Cc1ccc(-c2nc(N)c3cc(Cc4ccccc4F)sc3n2)o1`, the pKi in [1] is greater than 7.80; in [2] it was 8.43.
In the case of `N#Cc1cncc(-c2nc(N)c3cc(Cc4ccccc4)sc3n2)c1`, the pKi in [1] was 5.94; in data set [2], less than 6.77.
Regarding `Nc1nc(-c2cccc(Cl)n2)nc2sc(Cc3ccccc3)cc12`, the pKi is less than 6.00 in [1] and 6.76 in [2].
As for `Nc1nc(-c2cccc(C(F)(F)F)c2)nc2sc(Cc3ccccc3)cc12`, the negative logarithm of the Ki (pKi) in data set [1] is less than 6.00.
For `Nc1nc(-c2cnco2)nc2sc(Cc3ccccc3)cc12`, the pKi in data set [1] is 6.97; in [2], 8.05. For the same compound, the result in data set [15] was inactive.
Turning to `Cc1ccc(-c2nc(N)c3cc(C(C)c4ccccc4)sc3n2)o1` (configuration not stated), the negative-log Ki (pKi) in data set [1] is 6.36; in data set [2] it was 7.40.
Regarding `Nc1nc(-c2ncccn2)nc2sc(Cc3ccccc3)cc12`, the pKi in data set [2] was 7.77.
Take `N#Cc1cccc(-c2nc(N)c3cc(Cc4ccccc4F)sc3n2)c1`: the negative-log Ki (pKi) is greater than 7.80 in [1] and 8.14 in data set [2].
With `Nc1nc(-c2ccccc2)nc2sc(-c3ccccc3)cc12`, the pKi was 6.63 in [1] and 6.68 in [2].
In the case of `Cc1csc(-c2nc(N)c3cc(C4(c5ccccc5)CC4)sc3n2)n1`, the negative logarithm of the Ki (pKi) in [1] is less than 6.21.
Consider `Nc1nc(-c2ccccc2)nc2sc(CCc3ccccc3)cc12`, for which, in data set [2], the pKi is less than 6.00.
Regarding `COc1ccccc1Cc1cc2c(N)nc(-c3ccc(C)o3)nc2s1`, the 50% effective dose (ED50) in [3] turned out to be 0.8 mg/kg. Further, the negative logarithm of the Ki (pKi) is 6.91 in data set [1] and 7.96 in data set [2]. The result in data set [12] was Active.
Consider `Nc1nc(-c2ccncc2)nc2sc(Cc3ccccc3)cc12`, for which the pKi was 6.09 in data set [1] and 7.17 in data set [2].
In the case of `Nc1nc(-c2ccccc2)nc2sc(Cc3ccccc3)cc12`, the pKi was 6.82 in data set [1] and 7.53 in data set [2].
Turning to `Nc1nc(-c2ccccn2)nc2sc(Cc3ccccc3)cc12`, the figures for the negative logarithm of the Ki (pKi) in [1] and in data set [2] were 5.43 and 6.23, respectively.
Take `N#Cc1cccc(-c2nc(N)c3cc(Cc4ccccc4)sc3n2)n1`: the negative logarithm of the Ki (pKi) is less than 6.00 in [1] and 7.59 in [2].
For `CC(c1ccccc1)c1cc2c(N)nc(-c3cccc(C#N)c3)nc2s1` (configuration not stated) the same measures were 5.75 and 6.47.
